Laboratory results reported in patent US8754071B2 (priority 2011, dated 2014).

Target: T1, c-kit (Homo sapiens, UniProt P10721)
T1 construct: human Mo7e cells which endogenously express c-kit; endogenous in cells; host or cells: human Mo7e cells (promegakaryocytic leukemia line), stimulated with human recombinant SCF
Assay: Mo7e cell proliferation assay (SCF dependent proliferation)
Format: cell-based
Conditions: Table 2; human Mo7e cells stimulated with SCF, 48 hours, CellTiter Glo; 1% FBS; read-out: c-kit (Mo7e)
In short: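 Human Mo7e cells with endogenous c-kit, proliferation driven by SCF, 384-well format. After 48 h at 37 °C viability read by CellTiter-Glo luminescence. IC50 taken as concentration giving response halfway between baseline and maximum.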

T1 sequence (P10721 26-976): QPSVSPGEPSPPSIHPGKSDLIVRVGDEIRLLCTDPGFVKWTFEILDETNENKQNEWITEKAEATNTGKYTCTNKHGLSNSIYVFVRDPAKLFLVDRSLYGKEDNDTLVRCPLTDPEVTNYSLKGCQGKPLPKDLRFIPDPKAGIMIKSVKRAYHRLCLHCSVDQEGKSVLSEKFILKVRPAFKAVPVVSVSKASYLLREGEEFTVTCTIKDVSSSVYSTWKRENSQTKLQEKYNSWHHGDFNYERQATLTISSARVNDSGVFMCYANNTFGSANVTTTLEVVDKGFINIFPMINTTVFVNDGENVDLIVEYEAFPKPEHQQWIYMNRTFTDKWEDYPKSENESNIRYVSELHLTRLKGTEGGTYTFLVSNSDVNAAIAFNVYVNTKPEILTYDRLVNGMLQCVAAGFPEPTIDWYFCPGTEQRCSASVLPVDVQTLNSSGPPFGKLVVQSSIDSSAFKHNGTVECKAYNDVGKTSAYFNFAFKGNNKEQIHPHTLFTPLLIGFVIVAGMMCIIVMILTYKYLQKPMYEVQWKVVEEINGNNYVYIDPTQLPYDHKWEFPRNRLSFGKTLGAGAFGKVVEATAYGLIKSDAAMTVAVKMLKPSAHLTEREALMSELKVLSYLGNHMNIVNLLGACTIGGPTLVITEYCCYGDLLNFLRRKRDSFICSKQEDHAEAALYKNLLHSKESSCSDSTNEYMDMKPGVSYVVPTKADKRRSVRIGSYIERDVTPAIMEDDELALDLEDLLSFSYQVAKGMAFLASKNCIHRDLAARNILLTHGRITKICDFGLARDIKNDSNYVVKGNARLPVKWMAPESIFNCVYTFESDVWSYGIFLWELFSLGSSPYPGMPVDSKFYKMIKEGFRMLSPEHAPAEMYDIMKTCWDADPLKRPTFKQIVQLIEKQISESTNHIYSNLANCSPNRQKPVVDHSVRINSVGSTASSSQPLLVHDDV

IC50 [nM] | SMILES
684 | Cc1ccc(-c2noc(CNC(=O)C3CCOCC3)n2)cc1NC(=O)c1cnc2ccccn12 [F149]
718 | Cc1ccc(-c2noc(C3CN(C(=O)OCCO)C3)n2)cc1NC(=O)c1cnc2ccccn12 [F150]
357 | COC(=O)N1CC[C@H]1c1nc(-c2ccc(C)c(NC(=O)c3cnc4ccccn34)c2)no1 [F151]
738 | CC(=O)N1CC[C@H]1c1nc(-c2ccc(C)c(NC(=O)c3cnc4ccccn34)c2)no1 [F152]
997 | CC(C)(C)OC(=O)N1CC(c2nc(-c3ccc(F)c(NC(=O)c4cnc5ccccn45)c3)no2)C1 [F153]
472 | CS(=O)(=O)N1CC(c2nc(-c3ccc(F)c(NC(=O)c4cnc5ccccn45)c3)no2)C1 [F154]
120 | CCS(=O)(=O)N1CC(c2nc(-c3ccc(F)c(NC(=O)c4cnc5ccccn45)c3)no2)C1 [F155]
124 | CCCS(=O)(=O)N1CC(c2nc(-c3ccc(F)c(NC(=O)c4cnc5ccccn45)c3)no2)C1 [F156]
153 | Cc1ccc(-c2noc(C3CN(S(=O)(=O)c4cccnc4)C3)n2)cc1NC(=O)c1cnc2ccccn12 [F157]
527 | Cc1ccc(-c2noc(C3CN(S(=O)(=O)c4ccn(C)n4)C3)n2)cc1NC(=O)c1cnc2ccccn12 [F158]
157 | Cc1ccc(-c2noc(C3CN(S(=O)(=O)C4CCOC4)C3)n2)cc1NC(=O)c1cnc2ccccn12 (centres unmarked) [F159]
380 | Cc1ccc(-c2noc(C3CN(S(=O)(=O)C4CCOCC4)C3)n2)cc1NC(=O)c1cnc2ccccn12 [F160]
145 | COC(=O)CCS(=O)(=O)N1CC(c2nc(-c3ccc(C)c(NC(=O)c4cnc5ccccn45)c3)no2)C1 [F161]
249 | Cc1ccc(-c2noc(C3CN(S(=O)(=O)C4CCN(C(=O)OC(C)(C)C)C4)C3)n2)cc1NC(=O)c1cnc2ccccn12 (centres unmarked) [F162]
185 | Cc1ccc(-c2noc(C3CN(S(=O)(=O)C4CCN(C(=O)OC(C)(C)C)CC4)C3)n2)cc1NC(=O)c1cnc2ccccn12 [F163]
269 | COC(=O)N1CCOC[C@H]1c1nc(-c2ccc(C)c(NC(=O)c3cnc4ccccn34)c2)no1 [F164]

IC50 [nM] | SMILES
362 | Cc1ccc(-c2noc([C@@H]3COCCN3S(C)(=O)=O)n2)cc1NC(=O)c1cnc2ccccn12 [F165]
163 | COC(=O)N1CCOC[C@@H]1c1nc(-c2ccc(C)c(NC(=O)c3cnc4ccccn34)c2)no1 [F166]
102 | Cc1ccc(-c2noc([C@H]3COCCN3S(C)(=O)=O)n2)cc1NC(=O)c1cnc2ccccn12 [F167]
358 | CC(=O)N1CCOC[C@@H]1c1nc(-c2ccc(C)c(NC(=O)c3cnc4ccccn34)c2)no1 [F168]
132 | COC(=O)N1CCC(c2nc(-c3ccc(C)c(NC(=O)c4cnc5ccccn45)c3)no2)C1 (centres unmarked) [F169]
137 | Cc1ccc(-c2noc(C3CCN(S(C)(=O)=O)C3)n2)cc1NC(=O)c1cnc2ccccn12 (centres unmarked) [F170]
240 | CC(=O)N1CCC(c2nc(-c3ccc(C)c(NC(=O)c4cnc5ccccn45)c3)no2)C1 (centres unmarked) [F171]
122 | COC(=O)N1CC(F)(F)C[C@H]1c1nc(-c2ccc(C)c(NC(=O)c3cnc4ccccn34)c2)no1 [F172]
212 | CC(=O)N1CC(F)(F)C[C@H]1c1nc(-c2ccc(C)c(NC(=O)c3cnc4ccccn34)c2)no1 [F173]
831 | Cc1ccc(-c2noc(C3CN(C(=O)N(C)C)C3)n2)cc1NC(=O)c1cnc2ccccn12 [F174]
728 | Cc1ccc(-c2noc(C3CN(C(=O)OC(C)(C)C)CCO3)n2)cc1NC(=O)c1cnc2ccccn12 (centres unmarked) [F175]
452 | Cc1ccc(-c2noc([C@@H]3CCCN3C(=O)OC(C)(C)C)n2)cc1NC(=O)c1cnc2ccccn12 [F176]
398 | COC(=O)N1CC(Cc2nc(-c3ccc(C)c(NC(=O)c4cnc5ccccn45)c3)no2)C1 [F177]
476 | Cc1ccc(-c2noc(CC3CN(S(C)(=O)=O)C3)n2)cc1NC(=O)c1cnc2ccccn12 [F178]
119 | Cc1ccc(-c2noc(CCN3CC(F)(F)C3)n2)cc1NC(=O)c1cnc2ccccn12 [F179]
169 | Cc1ccc(-c2noc(CCN3CCOCC3)n2)cc1NC(=O)c1cnc2ccccn12 [F180]
